Key:
[1] = Solubility (stated in words); format: physicochemical
[2] = Laser diffraction of powder emitted from dry powder inhalers: VMGD and container emptying; format: physicochemical; conditions: 56% trans, SSA 55, pressure drop 4 kPa
Excerpt: Laser diffraction of dry powder formulations emitted from dry powder inhalers is a common methodology employed to characterize the level of de-agglomeration subjected to a powder. The methodology indicates a measure of geometric size rather than aerodynamic size as occurring in industry standard impaction methodologies. Typically, the geometric size of the emitted powder includes a volumetric distribution characterized by the median particle size, VMGD. Importantly, geometric sizes of the emitted particles are discerned with heightened resolution as compared to the aerodynamic sizes provided by impaction methods. Smaller sizes are preferred and result in greater likelihood of individual particles being delivered to the pulmonary tract. Thus, differences in inhaler de-agglomeration and ultimate performance can be easier to resolve with diffraction. In these experiments, inhalers were tested with laser diffraction at pressures analogous to actual patient inspiratory capacities to determine the effectiveness of the inhalation system to de-agglomerate powder formulations. Specifically, the formulations included cohesive diketopiperazine powders with an active insulin loaded ingredient and without. […] Reported in Table 6 are a VMGD and an efficiency of the container emptying during the testing. FDKP powders have an approximate Carr's index of 50 and TI powder has an approximate Carr's index of 40.

Question: With O=C(O)/C=C/C(=O)NCCCCC1NC(=O)C(CCCCNC(=O)/C=C/C(=O)O)NC1=O (stereo not drawn) [FDKP, 2,5-diketo-3,6-bis(N-fumaryl-4-aminobutyl)piperazine] as the compound, how does the solubility ([1]; at neutral or basic pH) read?
Answer: Its solubility is “readily soluble”.

Question: And the solubility ([1]; in acid)?
Answer: The solubility was “low solubility”.

Question: What about the “% CE” value ([2]; DPI 2) of the same compound?
Answer: The value was 92.5%.

Question: And the VMGD ([2]; DPI 2)?
Answer: Its VMGD is 6.800 micron.

Question: What about the “% CE” value ([2]; MedTone) of the same compound?
Answer: The value was 89.5%.

Question: What about the VMGD ([2]; MedTone) of the same compound?
Answer: The VMGD was 21.200 micron.

Reference: US8227409B2, “Diketopiperazine microparticles with defined isomer contents” (MannKind Corporation, priority 2009, dated 2012)
